The record followed here is patent publication US20250340551A1, “SMALL MOLECULE MODULATORS OF STAT6” (Gilead Sciences, Inc., priority 2024, published 2025).

The test system of test [1] is Eotaxin-3 (CCL26) release in human whole blood stimulated with IL-4. As to the kind of experiment: Human whole blood eotaxin-3 assay (IL-4 stimulated, Eotaxin-3 release). The note with it: for Emax: 48 h. The test is classed as cell-based. A digest of the protocol:
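Lithium-heparin blood preincubated 2 h at 37° C with 4-fold compound dilutions (0.5% DMSO, triplicates), then stimulated with 400 pM recombinant human IL-4 for 48 h. Eotaxin-3 in plasma supernatant measured by MSD immunoassay.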

The target of the next test is human STAT6 (Homo sapiens (Human), UniProt P42226). As to the kind of experiment: Surface plasmon resonance assay (Biacore 8K, binding to immobilized STAT6). As to conditions: human STAT6 aa122-658, N-terminal His-tag, CM5 chip, 25° C.; geometric mean; read-out: STAT6 SPR Kd. A digest of the protocol:
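Run at 25° C with His-tagged STAT6 aa122-658 (insect-cell expressed) amine-coupled to a CM5 chip, reference-subtracted, in PBS-P+ with 2% DMSO. Multi-cycle kinetics: 60 sec. contact, up to 300 sec. dissociation. Affinity fitted from late report-point binding isotherms, with Rmax both free and fixed to theoretical 1:1.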

human STAT6, sequence (P42226 122-658): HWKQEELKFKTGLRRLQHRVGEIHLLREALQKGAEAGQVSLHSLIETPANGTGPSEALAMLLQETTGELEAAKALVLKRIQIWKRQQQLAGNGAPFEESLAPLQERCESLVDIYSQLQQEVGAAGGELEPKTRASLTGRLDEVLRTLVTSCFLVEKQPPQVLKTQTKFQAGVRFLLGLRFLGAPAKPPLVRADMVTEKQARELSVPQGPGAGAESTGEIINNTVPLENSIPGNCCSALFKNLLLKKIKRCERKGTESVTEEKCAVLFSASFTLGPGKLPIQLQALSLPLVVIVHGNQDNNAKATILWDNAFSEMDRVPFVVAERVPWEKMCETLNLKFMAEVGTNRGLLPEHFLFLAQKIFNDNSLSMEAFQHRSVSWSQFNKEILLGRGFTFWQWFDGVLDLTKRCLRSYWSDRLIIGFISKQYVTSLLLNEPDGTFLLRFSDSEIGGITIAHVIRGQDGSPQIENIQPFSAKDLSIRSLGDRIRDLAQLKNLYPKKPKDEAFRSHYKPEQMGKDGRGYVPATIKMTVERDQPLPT

`CNc1ccc(-c2ccnc3c2cc(CN2CC=C(c4ncc(C(=O)N(C)C)cc4C)CC2)n3C)cn1` [Example 1s12, N,N,5-Trimethyl-6-[1-[[1-methyl-4-[6-(methylamino)-3-pyridyl]pyrrolo[2,3-b]pyridin-2-yl]methyl]-3,6-dihydro-2H-pyridin-4-yl]pyridine-3-carboxamide] displayed an EC50 in test [1] (Homo sapiens, Hec50, 48 h) of 4960 nM. For the same compound, the dissociation constant (Kd) at human STAT6 was found to be 32.1 nM.

`Cc1cc(C(=O)N(C)C)ccc1C1=CCN([C@@H](C)c2cc3c(-c4ccc(N)nc4C#N)ccnc3n2C)CC1` [Example 1af44, (S)-4-(1-(1-(4-(6-Amino-2-cyanopyridin-3-yl)-1-methyl-1H-pyrrolo[2,3-b]-pyridin-2-yl)ethyl)-1,2,3,6-tetrahydropyridin-4-yl)-N,N,3-trimethylbenzamide] came in with an EC50 in test [1] (Homo sapiens, Hec50, 48 h) of 15900 nM. Moreover, at human STAT6, the Kd turned out to be 352 nM.

As for `Cc1cc(C(=O)N(C)C)ccc1C1=CCN([C@H](C)c2cc3c(-c4ccc(N)nc4C#N)ccnc3n2C)CC1` [Example 1af45, (R)-4-(1-(1-(4-(6-amino-2-cyanopyridin-3-yl)-1-methyl-1H-pyrrolo[2,3-b]pyridin-2-yl)ethyl)-1,2,3,6-tetrahydropyridin-4-yl)-N,N,3-trimethylbenzamide], in test [1] (Homo sapiens, Hec50, 48 h), a half-maximal response (EC50) required 41 nM. Also, at human STAT6, the Kd stood at 21.6 nM.

Regarding `CNc1ccc(-c2ccnc3c2cc(CN2CCC(c4ccc(C(=O)N(C)C)cc4)CC2)n3C)[n+]([O-])c1` [Example 1u2, N,N-Dimethyl-4-[1-[[1-methyl-4-[5-(methylamino)-1-oxido-pyridin-1-ium-2-yl]pyrrolo[2,3-b]pyridin-2-yl]methyl]-4-piperidyl]benzamide], the EC50 in test [1] (Homo sapiens, Hec50, 48 h) amounted to 328 nM. Moreover, the Kd on human STAT6 amounted to 44.9 nM.

Compound `CNc1ccc(-c2ccnc3c2cc(CN2CCC(c4c(C)cc(C(=O)N(C)C)cc4C)CC2)n3C)cn1` [Example 1s13, N,N,3,5-Tetramethyl-4-[1-[[1-methyl-4-[6-(methylamino)-3-pyridyl]pyrrolo[2,3-b]pyridin-2-yl]methyl]-4-piperidyl]benzamide] showed an EC50 in test [1] (Homo sapiens, Hec50, 48 h) of 480 nM. The Kd on human STAT6 was determined as 28.8 nM.

Take `CNc1ccc(-c2ccnc3c2cc(CN2CCN(c4ccc(C(=O)N(C)C)cc4C)CC2)n3C)cn1` [Example 1s14, N,N,3-Trimethyl-4-[4-[[1-methyl-4-[6-(methylamino)-3-pyridyl]pyrrolo[2,3-b]pyridin-2-yl]methyl]piperazin-1-yl]benzamide]: the Emax in test [1] (Homo sapiens) turned out to be 37.2%. Further, on human STAT6, the Kd was found to be 28.9 nM.

In test [1] (Homo sapiens), `C[C@H](c1cc2c(-c3ccc(N)cn3)ccnc2n1C)N1CC=C(c2ccc(C(=O)N(C)C)cc2)CC1` [Example 1af20, (R)-4-(1-(1-(4-(5-aminopyridin-2-yl)-1-methyl-1H-pyrrolo[2,3-b]pyridin-2-yl)ethyl)-1,2,3,6-tetrahydropyridin-4-yl)-N,N-dimethylbenzamide] came in with an Emax of 76.7%. In addition, on human STAT6, the Kd was 40.4 nM.

Compound `CNc1ccc(-c2ccnc3c2cc(CN2CCC(c4ccc(C(=O)N(C)C)cc4)CC2)n3C)nn1` [Example 1k71, N,N-Dimethyl-4-[1-[[1-methyl-4-[6-(methylamino)pyridazin-3-yl]pyrrolo[2,3-b]pyridin-2-yl]methyl]-4-piperidyl]benzamide] registered an Emax in test [1] (Homo sapiens) of 78.8%. On human STAT6, the Kd was 22.6 nM.

Take `CNc1ccc(-c2ccnc3c2cc(CN2CCC(c4ccc(C(=O)N(C)C)cc4C)CC2)n3C)nn1` [Example 1p2, N,N,3-Trimethyl-4-[1-[[1-methyl-4-[6-(methylamino)pyridazin-3-yl]pyrrolo[2,3-b]pyridin-2-yl]methyl]-4-piperidyl]benzamide]: the EC50 in test [1] (Homo sapiens, Hec50, 48 h) was 14100 nM. At human STAT6, the Kd stood at 70.1 nM.

For the compound `CNc1cc(C)c(-c2ccnc3c2cc(CN2CCC(c4ccc(C(=O)N(C)C)cc4)CC2)n3C)cn1` [Example 1k51, N,N-Dimethyl-4-[1-[[1-methyl-4-[4-methyl-6-(methylamino)-3-pyridyl]pyrrolo[2,3-b]pyridin-2-yl]methyl]-4-piperidyl]benzamide], in test [1] (Homo sapiens), the Emax turned out to be 43%. Further, on human STAT6, the Kd stood at 80.5 nM.

Consider “N,N-Dimethyl-4-[1-[[1-methyl-4-[6-(methylamino)-3-pyridyl]pyrrolo[2,3-b]pyridin-2-yl]methyl]-4-piperidyl]benzamide [Example 1k37]”, for which the EC50 in test [1] (human whole blood, 400 pM recombinant human IL-4, 48 h, EC50 provided for compounds with >80% Emax, geometric mean) is 7160 nM. Moreover, on human STAT6, the Kd stood at 16 nM.

The compound `C[C@H]1C[C@@H](c2ccc(C(=O)N(C)C)cc2)CCN1Cc1cc2c(-c3ccc(N)nc3C#N)ccnc2n1C` (single isomer, unassigned) [Example 1q5] displayed an EC50 in test [1] (Homo sapiens, Hec50, 48 h) of 651 nM. Besides, on human STAT6, the Kd is 57.4 nM.

Consider `CNc1ccc(-c2ccnc3c2cc(CN2CCC(c4ccc(C(=O)N(C)C)cc4)CC2)n3C)nc1` [Example 1k69, N,N-Dimethyl-4-(1-((1-methyl-4-(5-(methylamino)pyridin-2-yl)-1H-pyrrolo[2,3-b]pyridin-2-yl)methyl)piperidin-4-yl)benzamide], for which the Emax in test [1] (Homo sapiens) amounted to 72%. For the same compound, the Kd at human STAT6 worked out at 53.5 nM.

Compound `CN(C)C(=O)c1ccc(C2CCN(Cc3cc4c(-c5cnc(N)c(F)c5)ccnc4n3C)CC2)cc1` [Example 1k14, 4-[1-[[4-(6-Amino-5-fluoro-3-pyridyl)-1-methyl-pyrrolo[2,3-b]pyridin-2-yl]methyl]-4-piperidyl]-N,N-dimethyl-benzamide] had an Emax in test [1] (Homo sapiens) of 65.6%. The Kd on human STAT6 turned out to be 37.2 nM.

For “4-[1-[[4-(6-Amino-2-methoxy-3-pyridyl)-1-methyl-pyrrolo[2,3-b]pyridin-2-yl]methyl]-4-piperidyl]-N,N-bis(trideuteriomethyl)benzamide [Example 1k44]”, the “Eotaxin-3 Emax (%)” value in test [1] (human whole blood, 400 pM recombinant human IL-4, 48 h, Emax provided for compounds with <80% Emax, geometric mean) was 77%. Further, the Kd at human STAT6 stood at 25.6 nM.

For the compound `CC(=O)Nc1ccc(-c2ccnc3c2cc(CN2CC[C@@H](c4ccc(C(=O)N(C)C)cc4)[C@@H](F)C2)n3C)cc1` [Example 1r6, N,N-dimethyl-4-[(3R,4S)-1-[[4-(4-acetamidophenyl)-1-methyl-pyrrolo[2,3-b]pyridin-2-yl]methyl]-3-fluoro-4-piperidyl]benzamide], the Emax in test [1] (Homo sapiens) worked out at 51.2%. The Kd on human STAT6 was found to be 39.9 nM.

In turn, `Cc1cc(-c2ccnc3c2cc(CN2CCC(c4ccc(C(=O)N(C)C)cc4)CC2)n3C)cnc1N` [Example 1k11, 4-[1-[[4-(6-Amino-5-methyl-3-pyridyl)-1-methyl-pyrrolo[2,3-b]pyridin-2-yl]methyl]-4-piperidyl]-N,N-dimethyl-benzamide] yielded an EC50 in test [1] (Homo sapiens, Hec50, 48 h) of 6590 nM. Also, on human STAT6, the Kd is 30.5 nM.

With `CNc1ccc(-c2ccnc3c2cc(CN2CCN(c4ccc(C(=O)N(C)C)cc4)CC2)n3C)nn1` [Example 1p1, N,N-Dimethyl-4-[4-[[1-methyl-4-[6-(methylamino)pyridazin-3-yl]pyrrolo[2,3-b]pyridin-2-yl]methyl]piperazin-1-yl]benzamide], the EC50 in test [1] (Homo sapiens, Hec50, 48 h) turned out to be 76000 nM. For the same compound, the Kd on human STAT6 is 329 nM.

As to `COc1nc(N)ccc1-c1ccnc2c1cc(CN1CCC(c3ccc(C(=O)N(C)C)cc3)CC1)n2C` [Example 1k22, 4-[1-[[4-(6-Amino-2-methoxy-3-pyridyl)-1-methyl-pyrrolo[2,3-b]pyridin-2-yl]methyl]-4-piperidyl]-N,N-dimethyl-benzamide], in test [1] (Homo sapiens, Hec50, 48 h), the EC50 worked out at 1490 nM. Further, the Kd at human STAT6 stood at 22.3 nM.

`C[C@H](c1cc2c(-c3ccc(N)nc3C#N)ccnc2n1C)N1CCC(c2ccc(C(=O)N(C)C)cc2)CC1` [Example 1af14, (R)-4-(1-(1-(4-(6-amino-2-cyanopyridin-3-yl)-1-methyl-1H-pyrrolo[2,3-b]pyridin-2-yl)ethyl)piperidin-4-yl)-N,N-dimethylbenzamide] gave an EC50 in test [1] (Homo sapiens, Hec50, 48 h) of 135 nM. Also, the Kd on human STAT6 came to 18.5 nM.

Compound `C[C@@H]1C[C@H](c2ccc(C(=O)N(C)C)cc2)CCN1Cc1cc2c(-c3ccc(N)cn3)ccnc2n1C` (single isomer, unassigned) [Example 1q1] came in with an EC50 in test [1] (Homo sapiens, Hec50, 48 h) of 370 nM. Also, the Kd on human STAT6 is 18.1 nM.

In test [1] (Homo sapiens, Hec50, 48 h), `CNc1ccc(-c2ccnc3c2cc([C@@H](C)N2CCC(c4ccc(C(=O)N(C)C)cc4)CC2)n3C)c(C#N)n1` [Example 1af40, (R)-4-(1-(1-(4-(2-cyano-6-(methyl-amino)pyridin-3-yl)-1-methyl-1H-pyrrolo[2,3-b]pyridin-2-yl)ethyl)piperidin-4-yl)-N,N-dimethylbenzamide] displayed an EC50 of 44400 nM. Besides, the Kd at human STAT6 amounted to 2190 nM.

As for `Cc1cc(C(=O)N(C)C)ccc1C1CCN([C@H](C)c2cc3c(-c4ccc(N)cn4)ccnc3n2C)CC1` [Example 1af18, (R)-4-(1-(1-(4-(5-aminopyridin-2-yl)-1-methyl-1H-pyrrolo[2,3-b]pyridin-2-yl)ethyl)piperidin-4-yl)-N,N,3-trimethylbenzamide], the EC50 in test [1] (Homo sapiens, Hec50, 48 h) turned out to be 2910 nM. Besides, the Kd at human STAT6 came out at 31.4 nM.

As for `CNc1ccc(-c2ccnc3c2cc(CN2CCC(c4ccc(C(=O)N(C)C)cc4F)CC2)n3C)nc1` [Example 1o23, 3-Fluoro-N,N-dimethyl-4-[1-[[1-methyl-4-[5-(methylamino)-2-pyridyl]pyrrolo[2,3-b]pyridin-2-yl]methyl]-4-piperidyl]benzamide], a half-maximal response in test [1] (Homo sapiens, Hec50, 48 h) (EC50) required 2460 nM. Further, on human STAT6, the Kd came out at 30.6 nM.

In test [1] (Homo sapiens, Hec50, 48 h), `C[C@H](c1cc2c(-c3ccc(N)nc3)ccnc2n1C)N1CCC(c2ccc(C(=O)N(C)C)cc2)CC1` [Example 1af12, (R)-4-(1-(1-(4-(6-aminopyridin-3-yl)-1-methyl-1H-pyrrolo[2,3-b]pyridin-2-yl)ethyl)piperidin-4-yl)-N,N-dimethylbenzamide] yielded an EC50 of 246 nM. Further, the Kd at human STAT6 was 12.9 nM.
